Experimental findings from patent US20240109900A1, “AZABICYCLIC SHP2 INHIBITORS” (IRBM S.P.A., priority 2021, published 2024) are described below.

Experiment [1] has as its target SHP-2 enzyme (Met1-Leu525) (Homo sapiens (Human), UniProt Q06124). The experiment is described as follows: SHP2 inhibition enzymatic assay. The class given is biochemical. Conditions: 0.5 nM SHP-2 activated by 500 nM IRS1 peptide, 75 μM DiFMUP substrate; read-out: SHP2wt-IC50. The essentials: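 Compounds were preincubated 30 min with 0.5 nM SHP-2 (Met1-Leu525) plus 500 nM IRS1 activating peptide (pH 7.2 HEPES, 5 mM DTT), then 75 μM DiFMUP substrate reacted 30 min at room temperature. After bpV quench, DiFMUP fluorescence gave % inhibition; four-parameter logistic fit yielded IC50.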

Experiment [2] concerns ERK phosphorylation in KYSE-520 cells. In words: Phospho-ERK cellular assay. The class given is cell-based. Conditions: Homo sapiens, read-out: PERK IC50. The procedure, abridged:
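TR-FRET read-out of ERK1/2 Thr202/Tyr204 phosphorylation was taken after overnight antibody incubation at room temperature. Before that, KYSE-520 cells were treated 2 h at 37 °C with compound dilutions and lysed 30 min. Percent inhibition relative to vehicle and cell-free wells was fitted four-parametrically to give IC50.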

Setting [3] is: KYSE-520, 2 h, KYSE-520 cells, 2 h at 37° C., phospho-ERK1/2 (Thr202/Tyr204) TR-FRET.

Read-outs that look alike come from different tables or passages of the source.

Chain of SHP-2 enzyme (Met1-Leu525) (Q06124 1-525): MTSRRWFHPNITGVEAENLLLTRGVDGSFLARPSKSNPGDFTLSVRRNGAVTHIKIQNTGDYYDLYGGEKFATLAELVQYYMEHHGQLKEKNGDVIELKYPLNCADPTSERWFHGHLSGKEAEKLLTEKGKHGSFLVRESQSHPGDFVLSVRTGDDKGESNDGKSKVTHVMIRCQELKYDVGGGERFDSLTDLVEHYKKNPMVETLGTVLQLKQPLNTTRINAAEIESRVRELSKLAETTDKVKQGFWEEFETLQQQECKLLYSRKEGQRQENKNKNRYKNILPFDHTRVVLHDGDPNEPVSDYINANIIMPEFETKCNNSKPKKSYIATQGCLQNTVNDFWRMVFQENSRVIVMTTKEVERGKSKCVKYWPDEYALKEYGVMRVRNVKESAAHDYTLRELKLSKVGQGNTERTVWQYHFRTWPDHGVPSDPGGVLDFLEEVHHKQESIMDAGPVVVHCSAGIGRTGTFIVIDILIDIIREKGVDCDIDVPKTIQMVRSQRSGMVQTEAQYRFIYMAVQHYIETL

For `Cc1csc(C2(CN)C3CCN(c4cnc5c(-c6ccc(F)c7ncccc67)n[nH]c5n4)CC32)n1` (centres unmarked) [Example 92, (3-(3-(8-fluoroquinolin-5-yl)-1H-pyrazolo[3,4-b]pyrazin-6-yl)-7-(4-methylthiazol-2-yl)-3-azabicyclo[4.1.0]heptan-7-yl)methanamine], the figures for the 50% inhibitory concentration (IC50) in experiment [1] and in experiment [2] (setting [3]) were under 500 nM and under 1000 nM, respectively.

On to `Cc1csc(C2(CN)C3CCN(c4cnc5c(Sc6ccnc(N)c6Cl)n[nH]c5n4)CC32)n1` (centres unmarked) [Example 93, 4-((6-(7-(aminomethyl)-7-(4-methylthiazol-2-yl)-3-azabicyclo[4.1.0]heptan-3-yl)-1H-pyrazolo[3,4-b]pyrazin-3-yl)thio)-3-chloropyridin-2-amine], for which the half-inhibitory concentration (IC50) (in general, the concentration needed to halve the response being measured) in experiment [1] was under 500 nM; in experiment [2] (setting [3]), under 1000 nM.

Regarding `NCC1(c2ccsc2)C2CCN(c3cnc4c(-c5cccc(Cl)c5Cl)n[nH]c4n3)CC21` (centres unmarked) [Example 94, (3-(3-(2,3-dichlorophenyl)-1H-pyrazolo[3,4-b]pyrazin-6-yl)-7-(thiophen-3-yl)-3-azabicyclo [4.1.0]heptan-7-yl)methanamine], the IC50 is under 500 nM in experiment [1] and under 1000 nM in experiment [2] (setting [3]).

On to `NCC1(c2ccsc2)C2CCN(c3cnc4c(-c5ccnc(C(F)(F)F)c5)n[nH]c4n3)CC21` (centres unmarked) [Example 95, (7-(thiophen-3-yl)-3-(3-(2-(trifluoromethyl)pyridin-4-yl)-1H-pyrazolo[3,4-b]pyrazin-6-yl)-3-azabicyclo[4.1.0]heptan-7-yl)methanamine], for which the values for the half-maximal inhibitory concentration (IC50) in experiment [1] and in experiment [2] (setting [3]) were under 500 nM and 1000 to 5000 nM, respectively.

Turning to `NCC1(c2ccsc2)C2CCN(c3cnc4c(-c5cccnc5C(F)(F)F)n[nH]c4n3)CC21` (centres unmarked) [Example 96, (7-(thiophen-3-yl)-3-(3-(2-(trifluoromethyl)pyridin-3-yl)-1H-pyrazolo[3,4-b]pyrazin-6-yl)-3-azabicyclo[4.1.0]heptan-7-yl)methanamine], the IC50 in experiment [1] was under 500 nM; in experiment [2] (setting [3]), under 1000 nM.

Consider `Cn1nccc1C1(CN)C2CCN(c3cnc4c(-c5cccc(Cl)c5Cl)n[nH]c4n3)CC21` (centres unmarked) [Example 97, (3-(3-(2,3-dichlorophenyl)-1H-pyrazolo[3,4-b]pyrazin-6-yl)-7-(1-methyl-1H-pyrazol-5-yl)-3-azabicyclo[4.1.0]heptan-7-yl)methanamine], for which the values for the 50% inhibitory concentration (IC50) in experiment [1] and in experiment [2] (setting [3]) were under 500 nM and under 1000 nM, respectively.

For `Cn1ccc(C2(CN)C3CCN(c4cnc5c(-c6cccc(Cl)c6Cl)n[nH]c5n4)CC32)n1` (centres unmarked) [Example 98, (3-(3-(2,3-dichlorophenyl)-1H-pyrazolo[3,4-b]pyrazin-6-yl)-7-(1-methyl-1H-pyrazol-3-yl)-3-azabicyclo[4.1.0]heptan-7-yl)methanamine], the IC50 was under 500 nM in experiment [1] and under 1000 nM in experiment [2] (setting [3]).

As for `NCC1(c2ccon2)C2CCN(c3cnc4c(-c5cccc(Cl)c5Cl)n[nH]c4n3)CC21` (centres unmarked) [Example 99, (3-(3-(2,3-dichlorophenyl)-1H-pyrazolo[3,4-b]pyrazin-6-yl)-7-(isoxazol-3-yl)-3-azabicyclo[4.1.0]heptan-7-yl)methanamine], the figures for the 50% inhibitory concentration (IC50) in experiment [1] and in experiment [2] (setting [3]) were under 500 nM and under 1000 nM, respectively.

Regarding `NCC1C2CCN(c3cnc4c(-c5cccc(Cl)c5Cl)n[nH]c4n3)CC12` (centres unmarked) [Example 100, (3-(3-(2,3-dichlorophenyl)-1H-pyrazolo[3,4-b]pyrazin-6-yl)-3-azabicyclo[4.1.0]heptan-7-yl)methanamine], the values for the half-maximal inhibitory concentration (IC50) in experiment [1] and in experiment [2] (setting [3]) were under 500 nM and under 1000 nM, respectively.

Regarding `Cc1csc(C2(CN)C3CCN(c4nc5[nH]nc(-c6cccc7ncccc67)c5nc4CO)CC32)n1` (centres unmarked) [Example 101, (6-(7-(aminomethyl)-7-(4-methylthiazol-2-yl)-3-azabicyclo[4.1.0]heptan-3-yl)-3-(quinolin-5-yl)-1H-pyrazolo[3,4-b]pyrazin-5-yl)methanol], the results for the half-inhibitory concentration (IC50) in experiment [1] and in experiment [2] (setting [3]) were under 500 nM and under 1000 nM, respectively.

For `Cc1csc(C2(CN)C3CCN(c4nc5[nH]nc(-c6cccc(Cl)c6Cl)c5nc4CO)CC32)n1` (centres unmarked) [Example 102, (6-(7-(aminomethyl)-7-(4-methylthiazol-2-yl)-3-azabicyclo[4.1.0]heptan-3-yl)-3-(2,3-dichlorophenyl)-1H-pyrazolo[3,4-b]pyrazin-5-yl)methanol], the values for the 50% inhibitory concentration (IC50) in experiment [1] and in experiment [2] (setting [3]) were under 500 nM and under 1000 nM, respectively.

Regarding `Cc1csc(C2(CN)C3CCN(c4cnc5c(-c6ccc(OS(=O)(=O)F)c7ccccc67)n[nH]c5n4)CC32)n1` (centres unmarked) [Example 103, 4-(6-(7-(aminomethyl)-7-(4-methylthiazol-2-yl)-3-azabicyclo[4.1.0]heptan-3-yl)-1H-pyrazolo[3,4-b]pyrazin-3-yl)naphthalen-1-yl sulfurofluoridate], the 50% inhibitory concentration (IC50) was under 500 nM in experiment [1] and under 1000 nM in experiment [2] (KYSE-520, 2 h).

In the case of `NC[C@]1(c2ccccc2)[C@@H]2CN(c3cnc(Sc4cccnc4C(F)(F)F)c(N)n3)C[C@@H]21` [Example 104, 6-((1R,5S,6s)-6-(aminomethyl)-6-phenyl-3-azabicyclo[3.1.0]hexan-3-yl)-3-((2-(trifluoromethyl)pyridin-3-yl)thio)pyrazin-2-amine], the IC50 was under 500 nM in experiment [1] and over 5000 nM in experiment [2] (KYSE-520 cells, 2 h at 37° C., phospho-ERK1/2 (Thr202/Tyr204) TR-FRET).

`NC[C@]1(c2ccccc2F)[C@@H]2CCN(c3cnc4c(-c5ccnc(N)c5Cl)n[nH]c4n3)C[C@@H]21` [Example 105, 4-(6-((1S,6R,7R)-7-(aminomethyl)-7-(2-fluorophenyl)-3-azabicyclo[4.1.0]heptan-3-yl)-1H-pyrazolo[3,4-b]pyrazin-3-yl)-3-chloropyridin-2-amine]: the figures for the IC50 in experiment [1] and in experiment [2] (setting [3]) were under 500 nM and under 1000 nM, respectively.

With `Cc1c(-c2n[nH]c3nc(N4CC[C@@H]5[C@H](C4)[C@@]5(CN)c4c(F)cccc4F)cnc23)ccc2nn(C)cc12` [Example 106, ((1S,6R,7R)-7-(2,6-difluorophenyl)-3-(3-(2,4-dimethyl-2H-indazol-5-yl)-1H-pyrazolo[3,4-b]pyrazin-6-yl)-3-azabicyclo[4.1.0]heptan-7-yl)methanamine], the half-maximal inhibitory concentration (IC50) in experiment [1] was under 500 nM; in experiment [2] (setting [3]), under 1000 nM.

As for `Cc1cc([C@@]2(CN)[C@@H]3CCN(c4cnc5c(-c6ccc7nc(C)sc7c6Cl)n[nH]c5n4)C[C@@H]32)no1` [Example 107, ((1S,6R,7S)-3-(3-(7-chloro-2-methylbenzo[d]thiazol-6-yl)-1H-pyrazolo[3,4-b]pyrazin-6-yl)-7-(5-methylisoxazol-3-yl)-3-azabicyclo[4.1.0]heptan-7-yl)methanamine], the IC50 in experiment [1] was under 500 nM; in experiment [2] (setting [3]), under 1000 nM.

Turning to `Cc1cc([C@@]2(CN)[C@@H]3CCN(c4cnc5c(-c6ccc7nn(C)c(C)c7c6Cl)n[nH]c5n4)C[C@@H]32)no1` [Example 108, ((1S,6R,7S)-3-(3-(4-chloro-2,3-dimethyl-2H-indazol-5-yl)-1H-pyrazolo[3,4-b]pyrazin-6-yl)-7-(5-methylisoxazol-3-yl)-3-azabicyclo[4.1.0]heptan-7-yl)methanamine], the IC50 in experiment [1] is under 500 nM; in experiment [2] (setting [3]), under 1000 nM.

For `COc1c2c(Cl)c(-c3n[nH]c4nc(N5CC[C@@H]6[C@H](C5)[C@@]6(CN)c5cc(C)on5)cnc34)ccc2nn1C` [Example 109, ((1S,6R,7S)-3-(3-(4-chloro-3-methoxy-2-methyl-2H-indazol-5-yl)-1H-pyrazolo[3,4-b]pyrazin-6-yl)-7-(5-methylisoxazol-3-yl)-3-azabicyclo[4.1.0]heptan-7-yl)methanamine], the half-inhibitory concentration (IC50) in experiment [1] is under 500 nM; in experiment [2] (setting [3]), under 1000 nM.

Regarding `Cc1cc(C2(CN)C3CCN(c4nc5[nH]nc(-c6ccc7nc(C)sc7c6Cl)c5nc4C)CC32)no1` (centres unmarked) [Example 110, (3-(3-(7-chloro-2-methylbenzo[d]thiazol-6-yl)-5-methyl-1H-pyrazolo[3,4-b]pyrazin-6-yl)-7-(5-methylisoxazol-3-yl)-3-azabicyclo[4.1.0]heptan-7-yl)methanamine], the half-maximal inhibitory concentration (IC50) in experiment [1] is under 500 nM; in experiment [2] (setting [3]) it was under 1000 nM.

On to `COc1cnc2ccc(-c3n[nH]c4nc(N5CC[C@@H]6[C@H](C5)[C@@]6(CN)c5cc(C)on5)cnc34)c(Cl)c2n1` [Example 112, ((1S,6R,7S)-3-(3-(5-chloro-3-methoxyquinoxalin-6-yl)-1H-pyrazolo[3,4-b]pyrazin-6-yl)-7-(5-methylisoxazol-3-yl)-3-azabicyclo[4.1.0]heptan-7-yl)methanamine], for which the half-maximal inhibitory concentration (IC50) is under 500 nM in experiment [1] and under 1000 nM in experiment [2] (setting [3]).

In the case of `Cc1cc([C@@]2(CN)[C@@H]3CCN(c4cnc5c(-c6csc7ncccc67)n[nH]c5n4)C[C@@H]32)no1` [Example 113, ((1S,6R,7S)-7-(5-methylisoxazol-3-yl)-3-(3-(thieno[2,3-b]pyridin-3-yl)-1H-pyrazolo[3,4-b]pyrazin-6-yl)-3-azabicyclo[4.1.0]heptan-7-yl)methanamine], the half-maximal inhibitory concentration (IC50) was under 500 nM in experiment [1] and under 1000 nM in experiment [2] (setting [3]).

As for `Cc1cc([C@@]2(CN)[C@@H]3CCN(c4cnc5c(-c6ccnc7c(F)cccc67)n[nH]c5n4)C[C@@H]32)no1` [Example 114, ((1S,6R,7S)-3-(3-(8-fluoroquinolin-4-yl)-1H-pyrazolo[3,4-b]pyrazin-6-yl)-7-(5-methylisoxazol-3-yl)-3-azabicyclo[4.1.0]heptan-7-yl)methanamine], the half-inhibitory concentration (IC50) in experiment [1] was under 500 nM; in experiment [2] (setting [3]), under 1000 nM.
